What was measured:
[1] = test system: Hard Red Winter (HRW) wheat varieties or wheat inbred lines; test: field and greenhouse experiments: effect of GA3 on plant height, heading, flowering and yield in GA sensitive and insensitive wheat genotypes; assay type: in vivo
Protocol: A series of field and greenhouse experiments were conducted to understand the effect of GA3 on plant height, pollen dispersal and seed set in GA sensitive and insensitive wheat genotypes. Eight proprietary Hard Red Winter (HRW) wheat varieties or wheat inbred lines were used in this project at two locations. The plants were genotyped for the Rht1, Rht2, and Rht24 mutant alleles to determine which plants were GA3 sensitive or insensitive genotypes.
Commercially available GA3 was applied using a broadcast application to the wheat plants at various vegetative growth stages described by the Feekes Scale. GA3 was applied at different rates of active ingredient (ai)/acre to elucidate the growth response. Experimental treatments were: Untreated, 1 oz ai/acre applied at Feekes stage 6, 1 oz ai/acre applied sequentially at Feekes stage 6 and Feekes stage 8 (2 oz ai/acre total), and 1 oz ai/acre applied sequentially at Feekes stage 6, Feekes stage 8, and Feekes stage 10 (3 oz ai/acre total)

winter wheat genotypes = test: production studies: sodium chlorate desiccant sprayed to delay male flowering; assay type: in vivo
Protocol: A series of production studies were conducted to understand how to delay male flowering in wheat seed production. Several winter wheat genotypes were planted in a split plot design and sprayed with a commercially available sodium chlorate desiccant at the highest labeled rate at Feekes stages 7 and 9. In most crops, desiccants are typically used to artificially accelerate the drying down of plant tissues. Here, the strategy was to slow growth rates in the male wheat plants to delay heading and subsequent flowering. […] The desiccant caused a slight 0 to 2 inch (0 to 5 cm) reduction in plant height.

SMILES: C=C1C[C@]23C[C@@]1(O)CC[C@H]2[C@@]12C=C[C@H](O)[C@@](C)(C(=O)O1)[C@H]2[C@@H]3C(=O)O [GA3, gibberellin A3]
- change in heading and flowering ([1]; GA insensitive genotypes): did not change
- effect on wheat plant height ([1]; GA sensitive genotypes vs same genotype not treated): positive effect
- wheat yield vs untreated plants ([1]; GA sensitive genotypes, same GA3 treatment): lower wheat yield
- decrease of yield ([1]; GA sensitive male genotypes): 11%
- differences in plant height with GA3 treatments ([1]; plants with Rht1+Rht24 or Rht2+Rht24 mutant alleles (GA3 insensitive genotype combinations)): did not show differences in plant height

SMILES: [Na+].[O-][Cl+2]([O-])[O-] [sodium chlorate]
- inbred male yield (winter wheat genotypes; sprayed at Feekes stage 7 or 9 (both stages), FIG. 4): reduced
- inbred male yield, comparison of stages (winter wheat genotypes; sprayed at Feekes stage 9, FIG. 4): greatest reduction

From patent publication US20240016153A1, “WHEAT SEED PRODUCTION” (PIONEER HI-BRED INTERNATIONAL, INC., priority 2022, published 2024)
